Data set [1] relates to shPON2-SH-SY5Y cells. The data set is described as follows: Mitochondrial activity in PON2 knockdown (shPON2) and shSCR SH-SY5Y cells treated with MPP+. The data set is classed as cell-based, human. The protocol:
Human SH-SY5Y neuroblastoma cells (ATCC® (CRL-2266™; Manassas, VA, USA) were first cultured in Dulbecco’s Modified Eagle Medium (DMEM)/F12 supplemented with 10% fetal bovine serum (FBS), 100 U/mL penicillin, and 100 µg/mL streptomycin (complete media, CM) at 37 °C with 5% CO2. Cells (5 × 10^4 cells/well) then were cultured in 96-well plates for 24 h followed by incubation in serum-deficient media (SDM, culture media containing 0.5% FBS) for 16 h. Quiescent cells in SDM were incubated with 1 mM MPP^+ or dimethyl sulfoxide (DMSO) vehicle for 24 h, then treated with Vuti at the designated doses for 24 h. The treated cells were harvested according to the purpose and analyzed.
Lentiviral PON2 shRNA (h) (sc-62838) was purchased from Santa Cruz Co. (Santa Cruz, CA, USA). shRNA lentiviral particle transduction was performed according to the manufacturer’s protocol. Total RNA was isolated with a Trizol reagent (Invitrogen, Carlsbad, CA, USA). […] PON2 knockdown was verified by quantitative PCR, and the primers and methods used are described in the supplementary material.
A systemic cell-based mitochondrial function analysis system was established using SH-SY5Y cells in 96-well plates based on fluorescence detection methods as described previously. The assay system covers quantitative assays for methyl thiazyl tetrazolium-mitochondrial dehydrogenase activity (MTT), TMRE-based mitochondrial membrane potential (TMRE), ATP contents, and ROS of cells. […] Fluorescence intensities at 550 nm/580 nm for TMRE, at 510 nm/580 nm MitoSOX, or at 494 nm/522 nm for DCF-DA were normalized by Hoechst intensity at 355 nm/480 nm (Spectramax Gemini EM, Molecular Devices, Sunnyvale, CA, USA).
Endogenous OCR was measured in adherent SH-SY5Y cells using a Seahorse XF-24 Analyzer (Seahorse Bioscience, Billerica, MA, USA) following the manufacturer’s protocol with minor modifications. […] The OCR was calculated from 3-min measurement cycles and normalized to cell number.

The test system of data set [2] is panel of a total of 225 mammalian proteins. The data set is described as follows: In vitro safety (off-target) screening panel. The conditions noted are these: 225 targets: ion channels, GPCR, nuclear receptors, kinases, enzymes, transporters; data not shown. Here is the method:
The overall safety of Vuti has been already established through human phase 1 clinical trial (NCT04732988, NCT04733001, NCT04703764). However, for its potential repositioning as a central nervous system (CNS)-targeting drug candidate, we performed a comprehensive neurotoxicity assessment of Vuti through in vitro safety screening. Interactions of Vuti were tested against an extensive panel of a total of 225 mammalian proteins, including ion channels, G-protein coupled receptors (GPCR), nuclear receptors, kinases, non-kinase enzymes, and drug transporters, cardiac function, and drug-drug interactions. Additionally, these also examined whether Vuti interacted with reported direct targets of glabridin [37], such as estrogen receptor, peroxisome proliferator-activated receptor gamma (PPARγ), and cyclooxygenase 2 (COX-2).

Data set [3] in a line: QWBA and plasma radioactivity after oral 14C-Vuti in rats. The data set is classed as in vivo, Sprague-Dawley rat. The settings on record: abstract statement; species not stated there. Here is the method: Male 8-week-old Sprague Dawley rats (n = 5, 16 h fasted; Charles River Laboratories Japan Inc., Yokohama, Japan) were orally administered 10 mg/kg of ^14C-Vuti (equivalent to radioactivity of 3.7 MBq/kg, Glaceum Inc., Suwon, Korea). After 2, 6, and 24 h, each rat was euthanized by CO2 inhalation. The nasal cavity and anus were filled with 4% w/v sodium carboxymethyl cellulose, and the carcass was frozen in a dry ice-acetone mixture. […] The radioactivity was measured by the bio-imaging analyzer system (FUJIX-BAS2500, Fujifilm, Tokyo, Japan; resolution µm, gradation 256, sensitivity 10000, latitude 4), in which the radioactivity in organs was converted to the photo-stimulated luminescence per unit area (PSL/mm^2) minus the background radioactivity of the plastic standard samples. Tissue radioactivity in whole-body auto-radiograms was quantified by densitometry using an MCID image analysis software (v. 7.0, MCID Image Analysis Software Solutions for Life Sciences, Cambridge, UK). Radioactivity concentrations were expressed as ng equivalents of ^14C-Vuti per gram tissue (ng eq/g tissue). […]
For measuring the radioactive concentration in the plasma, blood (250 uL) was collected from the tail vein of the animals (n = 3) of the exact same conditions as the animals used for QWBA assay. […] Then the tissue to blood ratio was calculated. […]

These results are taken from PMC12535076, “Neurotherapeutic effects of Vutiglabridin as a Paraoxonase-2 modulator in preclinical models of Parkinson’s disease” (Molecular Neurodegeneration, 2025).

As for `CCOc1ccc(C2COc3c(ccc4c3CCC(C)(C)O4)C2)c(O)c1` (centres unmarked) [Vuti, Vutiglabridin], in data set [1] (control scrambled shRNA cells, 1 mM MPP+ then 1 nM Vuti), the “MPP+-induced mitochondrial damages in shSCR cells” value is given as “significantly restored”. The “OCR (basal respiration, ATP turnover rate, maximum respiratory capacity) in shPON2 cells” value in data set [1] (shPON2 cells, 1 mM MPP+ 20 h then 1 nM Vuti 24 h) is listed as “failed to restore”. Besides, the “effects on mitochondria function (MTT, ATP content, TMRE, DCF-DA-ROS, MitoSOX-ROS) in shPON2 cells” value in data set [1] (shPON2 infected cells, 1 mM MPP+ 20 h then 1 nM Vuti 24 h) is recorded as “considerably reduced or almost completely abolished”. In addition, in data set [2], the off-target interactions entry is reported as “no significant unexpected targets”. Also, in data set [3], the “duration of presence in the brain” value was “over 24 h”.
